Results as given in US20230295201A1 (Gilead Sciences, Inc., priority 2020, published 2023).
Read-outs that look alike come from different tables or passages of the source.

Key:
Type in all cases: cell-based
[1] = system: HRV16; assay: HRV16 HELA EC50 (cytopathic effect in H1-HeLa cells); settings: 96 h, H1-HeLa cells, 33° C., read-out: HRV16 HELA EC50
Method in brief: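 Read-out is luminescent cell viability (CellTiter-Glo) after 96 h of infection at 33 °C, scaled between uninfected and infected-untreated wells. Before infection with titrated virus, compounds went onto H1-HeLa cells as triplicate 3-fold dilution series.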

[2] = system: RSV A2; assay: RSV NHBE EC50 (RSV A2 antiviral assay in normal human bronchial epithelial cells); settings: NHBE cells, RSV A2, 4 days, read-out: RSV NHBE EC50
[3] = system: DENV2 replicon; assay: DENV-2 Huh-7 Rep EC50 (replicon luminescence); settings: Huh-7 replicon cells, 48 hours, read-out: DENV-2 Huh-7 Rep EC50
Method in brief: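 EC50 derived from luminescence dose-response, normalised to DMSO-only 0% inhibition wells, after 1.5 h with EnduRen substrate. Compounds were first exposed for 48 h at 37° C to DENV2 replicon Huh-7 cells (5,000/well).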

[4] = system: Dengue 2, New Guinea strain (NGC); assay: DENV-2 moDC EC50 (qPCR in human monocyte-derived dendritic cells); settings: moDCs
Procedure: Human monocyte-derived dendritic cells (moDCs) were derived from CD14+ monocytes (AllCells) cultured in Human Mo-DC Differentiation medium containing GM-CSF and IL-4 (Miltenyi Biotec). On day 7, moDCs were harvested by mechanical disruption, washed and suspended in serum-free RPMI. moDCs were infected with Vero-derived Dengue 2, New Guinea strain (NGC) at a MOI=0.1 for two hours in serum-free RPMI with gentle agitation at 37° C. Cells were washed and resuspended in 10% serum-containing RPMI (Gibco, supplemented with sodium pyruvate, NEAA, Penicillin-Streptomycin). 10^5 cells were plated in triplicate in 96-well plates with compounds dispensed at graded doses (Hewlett-Packard D300 Digital Dispenser). All wells were normalized to 0.25% DMSO. At 48 hours, cells were washed with 1×PBS and all supernatants removed. Total RNA was extracted using RNEasy 96 plates (Qiagen) and used to generate first-strand cDNA using XLT cDNA 5× Supermix (QuantaBio). cDNA was used as a template in a Taqman qPCR duplex reaction specific to DENV2 viral and GAPDH gene expression. EC50 values were determined using Prism Graphpad software, with normalization to a positive control and no compound negative control wells.

[5] = system: Dengue serotype 2 New Guinea C (NGC) strain; assay: DENV-2 Huh-7 EC50 (qPCR in Huh7 cells)
Procedure: Huh7 (Human hepatocarcinoma 7) cells were maintained in 10% FCS-containing DMEM complete media. On the day of the assay, cells were trypsinized (0.1% Trypsin-EDTA), washed and infected for 2 hours in serum-free DMEM with Dengue serotype 2 New Guinea C (NGC) strain at MOI=0.1 with gentle agitation at 37° C. After 2 hours, cells were washed with serum-free media and suspended in 10% FCS-containing DMEM (Gibco, supplemented with sodium pyruvate, NEAA, Penicillin-Streptomycin). 10^5 cells were plated in triplicate in 96-well plates with compounds dispensed at graded doses (Hewlett-Packard D300 Digital Dispenser). All wells were normalized to 0.25% DMSO. At 48 hours, cells were washed with 1×PBS and all supernatants removed. Total RNA was extracted using RNEasy 96 plates (Qiagen) and used to generate first-strand cDNA using XLT cDNA 5×Supermix (QuantaBio). cDNA was used as a template in a Taqman qPCR duplex reaction specific to DENV2 viral and GAPDH gene expression. EC50 values were determined using Prism Graphpad software, with normalization to a positive control and no compound negative control wells.

[6] = system: HRV14; assay: HRV14 HELA EC50 (cytopathic effect in H1-HeLa cells); settings: 96 h, read-out: HRV14 HELA EC50
Procedure: (§1) H1-HeLa cells, cultured in complete RPMI 1640 medium containing 10% heat-inactivated FBS and 1% Penicillin/Streptomycin, were seeded in 96 well plates at 5000 cells/well one day prior to compound dosing and infection. The antiviral activity of each compound was measured in triplicate. Compounds were added directly to the cell cultures in serial 3-fold dilutions using the HP300 digital dispenser (Hewlett Packard, Palo Alto, CA) immediately prior to infection. The plates were transferred to BSL-2 containment and 100 μL of 1/4000 dilution of HRV14 virus stock was added to each well containing cells and serially diluted compounds. Each plate included 6 wells of infected untreated cells and 6 wells of cells containing 5 μM Rupintrivir that served as 0% and 100% virus inhibition control, respectively. Following the infection, test plates were incubated for 96 h in a tissue culture incubator set to 37° C./5% CO2. Following incubation, the H1-HeLa cells were removed from incubation and allowed to equilibrate to 25° C. Cell viability was determined by removing 100 μL of culture medium and adding 100 μL of Cell-Titer Glo viability reagent. The mixtures were incubated on a shaker for 10 minutes at 25° C., and the luminescence signal was quantified on an Envision luminescence plate reader.

[7] = system: HRV10; assay: HRV10 HELA EC50
[8] = system: HRV99; assay: HRV99 EC50
[9] = system: RSV strain A2; assay: RSV HEp-2 EC50 (infectious cytopathic cell protection assay); settings: HEp-2 cells, RSV A2, 4 days, read-out: RSV HEp-2 EC50
Method in brief: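 Percent inhibition of RSV-induced cytopathic effect came from remaining cell viability (CellTiter-Glo luminescence) after 4 days at 37° C. Compounds in 3-fold serial dilutions were exposed to an infectious mix of titered A2 virus and HEp-2 cells at 50,000/ml, with 0% and 100% inhibition control standards.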

[10] = system: HRV1a; assay: HRV1A HELA EC50 (cytopathic effect in H1-HeLa cells); settings: 96 h, read-out: HRV1A HELA EC50
Procedure: as §1, with “HRV1a” for “HRV14”

[11] = system: RSV A strain A2; assay: RSV HAE EC50 (intracellular RSV RNA by real-time PCR in HAE cells); settings: read-out: RSV HAE EC50
Procedure: HAE cells are cultured at the air-liquid interface and have an apical side that is exposed to the air and a basal side that is in contact with the medium. Prior to experimentation, HAE were removed from their agar-based shipping packaging and were acclimated to 37° C./5% CO2 overnight in 1 ml of HAE Assay medium (AIR-100-MM, Mattek Corp). HAE were prepared for infection by washing the apical surface twice with 400 μL of PBS (either utilizing direct pipetting methods or by running each transwell through a trough containing PBS) to remove the mucus layer. Apical chambers were drained of PBS and tapped gently onto absorbent material to remove as much PBS as possible. After washing, the cells were transferred to fresh HAE maintenance media containing 4-fold serially diluted compound, delivered to the basal side of the cell monolayer, and apically infected with 100 μL of a 1:600 dilution of RSV A strain A2 1000× stock (ABI, Columbia, MD, cat #10-124-000) in HAE assay medium for 3 hours at 37° C. in 5% CO2. The virus inoculum was removed and the apical surface of the cells was washed 3 times with PBS using either method previously described. The cells were then cultured in the presence of compound for 3 days at 37° C. Following the incubation, total RNA was extracted from the HAE cells using a MagMAX-96 Viral RNA isolation kit (Applied Biosystems, Foster City, CA, Cat #AM1836) and intracellular RSV RNA was quantified by real-time PCR. Approximately 25 ng of purified RNA was added to a PCR reaction mixture that contained 0.9 μM RSV N Forward and RSV N Reverse primers, 0.2 μM RSV N Probe and 1×Taqman RNA-to-Ct 1-Step Kit (Applied Biosystems, Foster City, CA, Cat #4392938). RNA levels were normalized using a Tagman GAPDH control primer set (Applied Biosystems, Foster City, CA, Cat #402869). Real-Time PCR Primers and Probe Used in the RSV A2 HAE Antiviral Assay: […]

[12] = human respiratory syncytial virus, NHBE, 96 h
[13] = Dengue virus, DENV2, Huh-7, 48 h
[14] = Dengue virus, DENV2, Dendritic cell, 48 h
[15] = human respiratory syncytial virus, HEp-2, 96 h

SMILES | EC50 [1] | EC50 [2, 12] | EC50 [4, 14] | EC50 [2] | EC50 [9] | other results
CCCCOC(=O)[C@H](C)N[P@](=O)(OC[C@@]1(C#N)O[C@@H](c2ccc3c(N)ncnn23)[C@H](O)[C@@H]1O)Oc1ccccc1 [Example 54, butyl ((S)-(((2R,3S,4R,5S)-5-(4-aminopyrrolo[2,1-f][1,2,4]triazin-7-yl)-2-cyano-3,4-dihydroxytetrahydrofuran-2-yl)methoxy)(phenoxy)phosphoryl)-L-alaninate] | 378 nM | 105 nM | 804 nM |  |  | EC50 [3, 13]: 7400 nM; EC50 [5, 13]: 2590 nM
C[C@H](NP(=O)(OC[C@@]1(C#N)O[C@@H](c2ccc3c(N)ncnn23)[C@H](O)[C@@H]1O)Oc1ccccc1)C(=O)OCC1CCC1 (mixture of isomers) [Example 2, (2S)-cyclobutylmethyl 2-(((((2R,3S,4R,5S)-5-(4-aminopyrrolo[2,1-f][1,2,4]triazin-7-yl)-2-cyano-3,4-dihydroxytetrahydrofuran-2-yl)methoxy)(phenoxy)phosphoryl)amino)propanoate] | 353 nM | 122 nM |  |  |  | EC50 [6]: 340 nM; EC50 [7]: 114 nM; EC50 [8]: 708 nM; EC50 [9, 15]: 56 nM; EC50 [10]: 106 nM
CCC(C)(C)COC(=O)[C@H](C)NP(=O)(OC[C@@]1(C#N)O[C@@H](c2ccc3c(N)ncnn23)[C@H](O)[C@@H]1O)Oc1ccccc1 (single isomer, unassigned) [Example 255] |  |  | 86 nM | 43 nM | 18 nM | EC50 [3]: 4940 nM; EC50 ([5]; 48 hours): 824 nM
CC1CCC(OC(=O)C(C)NP(=O)(OCC2(C#N)OC(c3ccc4c(N)ncnn34)C(O)C2O)Oc2ccccc2)CC1 (stereo not shown) [Example 143] |  |  |  | 53 nM | 142 nM | EC50 ([11]; HAE cells, RSV A2, 3 days): 157 nM
C[C@H](NP(=O)(OC[C@@]1(C#N)O[C@@H](c2ccc3c(N)ncnn23)[C@H](O)[C@@H]1O)Oc1ccccc1)C(=O)OC1CCCCCCC1 (single isomer, unassigned) [Example 173] |  |  |  | 282 nM | 156 nM | EC50 [5, 13]: 1210 nM; EC50 ([11]; human respiratory syncytial virus, HAE, 72 h): 22 nM
CCC(C)(C)COC(=O)[C@H](C)NP(=O)(OC[C@@]1(C#N)O[C@@H](c2ccc3c(N)ncnn23)[C@H](O)[C@@H]1O)Oc1ccccc1 (single isomer, unassigned) [Example 256] |  |  |  | 430 nM | 54 nM | EC50 [3]: > 100000 nM; EC50 ([4]; 48 hours): 103 nM; EC50 ([5]; 48 hours): > 18100 nM
CCCCCCCCCCCC(=O)Nc1ncnn2c([C@@H]3O[C@](C#N)(CO[P@@](=O)(N[C@@H](C)C(=O)OC4CCCCC4)Oc4ccccc4)[C@@H](O)[C@H]3O)ccc12 [Example 232, Cyclohexyl ((S)-(((2R,3S,4R,5S)-2-cyano-5-(4-dodecanamidopyrrolo[2,1-f][1,2,4]triazin-7-yl)-3,4-dihydroxytetrahydrofuran-2-yl)methoxy)(phenoxy)phosphoryl)-L-alaninate] | 479 nM | 98 nM | 1090 nM |  |  | EC50 [3, 13]: 5320 nM; EC50 [9, 15]: 61 nM
